According to ChEMBL document CHEMBL5728520, “Carboxamide-pyrimidine derivatives as SHP2 antagonists” (2021):

Biological target: T1, Tyrosine-protein phosphatase non-receptor type 11 (Homo sapiens, UniProt Q06124)
T1 sequence (Q06124 whole entry): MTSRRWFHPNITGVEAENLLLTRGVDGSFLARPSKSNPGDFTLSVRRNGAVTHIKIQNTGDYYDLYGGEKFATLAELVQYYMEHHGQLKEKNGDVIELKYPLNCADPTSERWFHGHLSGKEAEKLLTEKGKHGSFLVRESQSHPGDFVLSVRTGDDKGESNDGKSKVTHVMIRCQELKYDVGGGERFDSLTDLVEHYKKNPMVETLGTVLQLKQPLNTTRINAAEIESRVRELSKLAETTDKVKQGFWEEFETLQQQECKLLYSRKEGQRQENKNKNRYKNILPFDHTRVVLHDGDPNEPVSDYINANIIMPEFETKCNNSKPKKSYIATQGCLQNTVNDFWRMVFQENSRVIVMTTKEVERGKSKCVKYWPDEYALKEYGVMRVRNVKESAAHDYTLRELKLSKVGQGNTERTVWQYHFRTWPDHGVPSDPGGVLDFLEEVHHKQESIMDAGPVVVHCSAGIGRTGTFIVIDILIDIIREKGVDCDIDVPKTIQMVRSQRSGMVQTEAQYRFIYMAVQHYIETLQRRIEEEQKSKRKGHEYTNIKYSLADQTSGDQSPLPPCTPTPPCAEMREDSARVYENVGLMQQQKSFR
Experiment: Biochemical Assay: The inhibition of SHP2 by compounds of the invention was monitored using the surrogate substrate DiFMUP after protein activation by a peptide bearing two appropriately spaced phosphotyrosine. Full length SHP2 protein (Recombinant HumanSHP-2, E. coli derived Ser2Arg593, N-terminal 6His tag from R&D systems; […]) was incubated with activating peptide, IRSI_2pY (New England Peptide, 140 nM) and DiFMUP (molecular probes, 80 uM) at RT in buffer (HEPES pH 7.2 60 mM, DDT 5 mM, KCl 75 mM, NaCl 75 mM, EDTA 1 mM, Tween 20 0.05%) in presence of compound (10 concentrations range, top concentration 50 Î¼M) for 60 min. The generation of the DiFMU product by activated SHP2 was monitored through Fluorescence measurement with a PerkinElmer Envision reader.

IC50 [µM] | SMILES
3.7 | CC1(N)CCN(c2ncc(-c3cccc(Cl)c3Cl)c(C(N)=O)n2)CC1
> 10 | C[C@]12CCCCC[C@](C)(CN(c3nc(N)c(-c4cccc(Cl)c4Cl)c(C(N)=O)n3)C1)[C@H]2N
0.06 | CC1(N)CCN(c2nc(Cl)c(-c3cccc(Cl)c3Cl)c(C(N)=O)n2)CC1
